SMILES strings stand for the structures. Bounds are passed on as bounds.

The test system of data set [1] is Mus musculus. As to the kind of experiment: Anticonvulsant activity in MES-induced seizure Kunming mouse model assessed as protection against tonic hind limb extension at 30 mg/kg, ip measured after 30 min. Type of data set: functional, organism-based.
The nature of data set [2]: Drug concentration in male Sprague-Dawley rat plasma at 30 mg/kg, IG administered once measured after 0.25 to 8 hrs by HPLC analysis. The following applies: in vivo, po, time 0.25-8 hrs. The class given is ADME, organism-based.
Data set [3] relates to Mus musculus. The data set is described as follows: Antiepileptic activity in PTZ induced Kunming mouse model assessed as protection of seizure at 30 mg/kg, ip incubated for 30 min prior to PTZ stimulation relative to control. The class given is functional. The following applies: 0.5 h.
A short description of data set [4]: Protection index, ratio of TD50 for neurotoxicity in ip dosed scPTZ induced Kunming mouse to ED50 for anticonvulsant activity in ip dosed scPTZ induced Kunming mouse. The class given is toxicity, organism-based. The following applies: in vivo, read-out: Ratio TD50/ED50.
Data set [5] can be described thus: Drug concentration in male Sprague-Dawley rat brain at 30 mg/kg, IG administered once measured after 0.25 to 8 hrs by HPLC analysis. Type of data set: ADME, organism-based. To be noted: in vivo, po, time 0.25-8 hrs.
Data set [6] concerns the target GABA-A receptor; alpha-1/beta-2/gamma-2 (Homo sapiens) (UniProt P14867+P47870+P18507). The data set is described as follows: Potentiation of recombinant human alpha1/beta2/gamma2 GABA receptor expressed in T-REX-CHO cells assessed as fold increase in current amplitude by measuring maximum efficacy by whole-cell patch clamp assay. Type of data set: cell-based. To be noted: filed as activator, time 24-48 hrs.

The nature of data set [7]: Neurotoxicity in ip dosed sc-PTZ induced Kunming mouse measured after 0.5 hrs by rotarod test. To be noted: in vivo. The class given is toxicity, organism-based.
Data set [8] has as its system Mus musculus. As to the kind of experiment: Anticonvulsant activity in ip dosed sc-PTZ induced Kunming mouse model assessed as effective dose measured after 0.5 hrs […]. Type of data set: functional.
The target in data set [9] is Sodium channel protein type 2 subunit alpha (Homo sapiens, UniProt Q99250). The data set is described as follows: Inhibition of Nav 1.2 (unknown origin) expressed in HEK293 cells at -20 mV to -120 mV holding potential under inactivation state by whole-cell patch clamp analysis. Type of data set: cell-based.
Chain of Sodium channel protein type 2 subunit alpha (Q99250 whole entry): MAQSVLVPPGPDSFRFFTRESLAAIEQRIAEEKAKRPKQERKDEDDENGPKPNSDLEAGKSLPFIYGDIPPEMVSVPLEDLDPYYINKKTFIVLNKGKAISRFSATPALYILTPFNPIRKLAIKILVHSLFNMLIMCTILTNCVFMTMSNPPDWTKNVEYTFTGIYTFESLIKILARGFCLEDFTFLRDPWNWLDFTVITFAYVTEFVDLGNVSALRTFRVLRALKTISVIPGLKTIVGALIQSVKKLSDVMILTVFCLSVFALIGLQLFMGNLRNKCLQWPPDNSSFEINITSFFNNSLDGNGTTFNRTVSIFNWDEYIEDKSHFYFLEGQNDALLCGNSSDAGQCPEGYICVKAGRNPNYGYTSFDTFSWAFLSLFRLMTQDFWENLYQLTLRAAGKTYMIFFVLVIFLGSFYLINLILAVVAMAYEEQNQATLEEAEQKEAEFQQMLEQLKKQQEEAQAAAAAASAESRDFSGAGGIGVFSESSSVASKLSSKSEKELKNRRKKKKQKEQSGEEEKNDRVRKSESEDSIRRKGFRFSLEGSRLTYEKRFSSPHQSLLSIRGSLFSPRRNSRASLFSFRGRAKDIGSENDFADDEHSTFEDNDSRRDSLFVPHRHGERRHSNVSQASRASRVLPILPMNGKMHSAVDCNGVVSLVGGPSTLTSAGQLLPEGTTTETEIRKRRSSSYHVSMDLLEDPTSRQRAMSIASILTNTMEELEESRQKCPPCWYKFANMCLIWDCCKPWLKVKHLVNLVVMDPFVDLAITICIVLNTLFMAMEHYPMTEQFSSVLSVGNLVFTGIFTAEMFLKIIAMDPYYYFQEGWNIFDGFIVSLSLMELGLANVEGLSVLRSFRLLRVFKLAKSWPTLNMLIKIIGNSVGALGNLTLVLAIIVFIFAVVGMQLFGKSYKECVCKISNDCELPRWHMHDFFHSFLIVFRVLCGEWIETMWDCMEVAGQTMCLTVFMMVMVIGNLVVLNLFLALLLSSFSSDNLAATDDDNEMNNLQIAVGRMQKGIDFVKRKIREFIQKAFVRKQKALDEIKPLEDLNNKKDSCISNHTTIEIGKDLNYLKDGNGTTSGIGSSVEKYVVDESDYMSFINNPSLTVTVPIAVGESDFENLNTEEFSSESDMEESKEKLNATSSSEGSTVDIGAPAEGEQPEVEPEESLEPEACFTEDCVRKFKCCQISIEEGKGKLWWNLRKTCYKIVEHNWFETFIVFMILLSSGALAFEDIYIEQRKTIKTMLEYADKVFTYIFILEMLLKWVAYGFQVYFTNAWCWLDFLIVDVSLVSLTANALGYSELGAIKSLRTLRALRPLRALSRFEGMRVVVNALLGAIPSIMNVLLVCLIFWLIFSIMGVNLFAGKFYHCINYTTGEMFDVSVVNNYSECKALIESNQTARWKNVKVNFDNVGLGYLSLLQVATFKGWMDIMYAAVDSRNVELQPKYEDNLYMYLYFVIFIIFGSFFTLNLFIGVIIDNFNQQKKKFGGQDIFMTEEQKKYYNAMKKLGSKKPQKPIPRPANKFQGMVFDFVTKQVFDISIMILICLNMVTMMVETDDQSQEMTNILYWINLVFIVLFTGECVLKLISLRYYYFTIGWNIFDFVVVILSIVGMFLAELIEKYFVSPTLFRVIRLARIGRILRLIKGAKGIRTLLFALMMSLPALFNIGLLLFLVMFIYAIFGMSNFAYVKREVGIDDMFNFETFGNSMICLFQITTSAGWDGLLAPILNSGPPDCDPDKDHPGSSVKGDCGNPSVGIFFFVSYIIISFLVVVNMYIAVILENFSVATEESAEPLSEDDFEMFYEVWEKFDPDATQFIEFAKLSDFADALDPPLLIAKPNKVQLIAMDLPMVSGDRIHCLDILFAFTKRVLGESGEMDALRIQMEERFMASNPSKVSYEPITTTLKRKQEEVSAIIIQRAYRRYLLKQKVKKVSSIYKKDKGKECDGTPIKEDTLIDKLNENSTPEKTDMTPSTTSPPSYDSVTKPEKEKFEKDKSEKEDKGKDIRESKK
The target of data set [10] is GABA-A receptor; anion channel (Rattus norvegicus) (UniProt O09028+P15431+P18506+P18508+P19969+P20236+P23574+P23576+P28471+P28473+P30191+P62813+P63079+P63138+Q91ZM7+Q9ES14). The data set is described as follows: Potentiation of GABAA receptor in Sprague-Dawley rat hippocampal neurons assessed as increase in current amplitude by whole-cell voltage-clamp assay. The class given is cell-based. To be noted: Hippocampal neuron, filed as activator, dose 0.1-10 µM.

In data set [11] the target is T1, GABA-A receptor; alpha-1/beta-2/gamma-2 (Homo sapiens, UniProt P14867+P18507+P47870).
T1 sequence (P14867 whole entry): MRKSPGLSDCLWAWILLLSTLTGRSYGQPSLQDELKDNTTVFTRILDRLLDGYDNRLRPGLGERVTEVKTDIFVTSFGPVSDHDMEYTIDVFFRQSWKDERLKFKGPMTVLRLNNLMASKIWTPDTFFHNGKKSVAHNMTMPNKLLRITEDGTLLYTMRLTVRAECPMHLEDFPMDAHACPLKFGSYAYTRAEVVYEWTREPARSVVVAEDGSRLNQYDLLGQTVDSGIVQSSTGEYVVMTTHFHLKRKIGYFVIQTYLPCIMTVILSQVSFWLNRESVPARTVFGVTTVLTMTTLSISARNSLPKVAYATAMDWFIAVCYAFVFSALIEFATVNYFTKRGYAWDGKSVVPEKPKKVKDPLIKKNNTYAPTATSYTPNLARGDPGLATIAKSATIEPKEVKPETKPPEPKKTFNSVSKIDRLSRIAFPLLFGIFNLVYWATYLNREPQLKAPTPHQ
T1 sequence (P47870 whole entry): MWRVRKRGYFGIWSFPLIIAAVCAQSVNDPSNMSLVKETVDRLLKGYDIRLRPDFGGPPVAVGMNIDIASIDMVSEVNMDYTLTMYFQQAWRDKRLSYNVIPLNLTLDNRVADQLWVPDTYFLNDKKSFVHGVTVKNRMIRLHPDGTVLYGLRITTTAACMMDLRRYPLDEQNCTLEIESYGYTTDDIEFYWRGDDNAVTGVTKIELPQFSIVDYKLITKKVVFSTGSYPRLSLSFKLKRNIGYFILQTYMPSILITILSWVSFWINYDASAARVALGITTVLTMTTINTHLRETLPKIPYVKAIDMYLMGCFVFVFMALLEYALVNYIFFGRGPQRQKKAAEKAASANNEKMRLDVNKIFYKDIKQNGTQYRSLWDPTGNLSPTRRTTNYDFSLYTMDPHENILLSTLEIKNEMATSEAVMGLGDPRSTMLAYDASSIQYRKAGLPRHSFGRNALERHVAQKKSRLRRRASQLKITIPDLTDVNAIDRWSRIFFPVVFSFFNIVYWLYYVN
T1 sequence (P18507 whole entry): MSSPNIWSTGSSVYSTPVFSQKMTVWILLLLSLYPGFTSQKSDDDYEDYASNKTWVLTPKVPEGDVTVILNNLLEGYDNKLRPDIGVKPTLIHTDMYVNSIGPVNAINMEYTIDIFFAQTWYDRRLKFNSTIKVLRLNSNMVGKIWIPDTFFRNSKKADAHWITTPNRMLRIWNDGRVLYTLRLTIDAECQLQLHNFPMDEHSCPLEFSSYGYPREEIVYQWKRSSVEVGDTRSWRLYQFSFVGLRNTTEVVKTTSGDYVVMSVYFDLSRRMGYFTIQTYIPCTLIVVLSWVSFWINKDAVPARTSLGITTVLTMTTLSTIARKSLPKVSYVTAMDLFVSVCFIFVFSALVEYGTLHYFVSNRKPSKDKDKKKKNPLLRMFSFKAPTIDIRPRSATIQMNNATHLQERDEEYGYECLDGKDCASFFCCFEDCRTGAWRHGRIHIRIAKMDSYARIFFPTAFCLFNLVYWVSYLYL
As to the kind of experiment: Potentiation of recombinant human alpha1/beta2/gamma2 GABA receptor expressed in T-REX-CHO cells assessed as increase in current amplitude by whole-cell patch clamp assay. Type of data set: cell-based.

As for `O=C1CC(c2ccccc2F)n2nc(-c3ccccc3F)nc2N1` (configuration not stated), the Activity entry is “Active; Moderate Protection” in [1] and 100% in [3]. In data set [2], the Cp turned out to be 866.91 ng/mL. Besides, the selectivity ratio in data set [4] is greater than 11.3. The Ct in data set [5] was 458.72 ng/mL. For the same molecule, in data set [6], the fold change (FC) stood at 1.14. The same molecule gave a TD50 at 0.5 h in data set [7] greater than 267 mg/kg. The ED50 in [8] amounted to 23.7 mg/kg. It took 19.9 µM to reach half-maximal inhibition in data set [9] (IC50).
In the case of `CCCCN1C(=O)CC(c2ccccc2)n2nc(-c3ccc(C)cc3)nc21` (configuration not stated), in data set [2], the Cp was found to be 1186.41 ng/mL. Also, the Activity in data set [3] was 100%; in data set [10], “Dose-dependent-effect”. Besides, the selectivity ratio in [4] was greater than 14.6. In addition, in [5], the Ct worked out at 661.3 ng/mL. Besides, the fold change (FC) in [6] amounted to 2.21. In data set [7], this molecule yielded a TD50 at 0.5 h greater than 267 mg/kg. Further, in data set [8], the ED50 came to 18.3 mg/kg. The EC50 in data set [11] stood at 0.82 µM.
Consider `CCCC(CCC)C(=O)O` [VALPROIC ACID], for which, in data set [8], the ED50 is 149 mg/kg.
In the case of `NC(=O)N1c2ccccc2C=Cc2ccccc21` [CARBAMAZEPINE], the ED50 in data set [8] is greater than 100 mg/kg.
With `CCCCN1C(=O)CC(c2ccccc2)n2nc(-c3ccc(OC)cc3)nc21` (configuration not stated), the Cp in data set [2] is 1202.06 ng/mL. Further, the Activity is 100% in data set [3] and “Dose-dependent-effect” in data set [10]. The selectivity ratio in [4] is greater than 15.6. This molecule also yielded a Ct in data set [5] of 696.98 ng/mL. Further, the fold change (FC) in data set [6] came to 2.41. For the same molecule, the TD50 at 0.5 h in data set [7] was greater than 267 mg/kg. Moreover, in data set [8], the median effective dose (ED50) is 17.1 mg/kg. In data set [9], this molecule had an IC50 of 35 µM. The EC50 in data set [11] was determined as 1.24 µM.
Take `O=C1NC(=O)C(c2ccccc2)(c2ccccc2)N1` [PHENYTOIN]: the ED50 in data set [8] was greater than 300 mg/kg.
As to `O=C1CC(c2ccccc2Cl)n2nc(-c3ccccc3F)nc2N1` (configuration not stated), the Activity entry in data set [1] was “Active; Moderate Protection”.

Source of the values: ChEMBL document CHEMBL6103572, “Design, synthesis and structure-activity relationship of novel 1,2,4-triazolopyrimidin-5-one derivatives targeting GABAA1 and Nav1.2 with antiepileptic activity” (Eur J Med Chem, 2025).
